Measurements reported in the NIST ThermoML archive (doi:10.1016/j.fluid.2006.09.014).
Numbers after ± are expanded uncertainties.

Settings: 298.15 K; 101.33 kPa; Liquid

Row | Structure (SMILES) | mass density
1 | Clc1ccccc1 [chlorobenzene] | 1100.9 ± 0.5 kg/m3
2 | CC(=O)c1ccccc1 [acetophenone] | 1023 ± 0.7 kg/m3
3 | Cc1ccccc1 [toluene] | 862.27 ± 0.23 kg/m3
4 | COc1ccccc1 [anisole] | 989.13 ± 0.21 kg/m3
